Here are results for four compounds from US10231973B2, “Salts of quinazoline derivative and method for preparing the same” (CHIA TAI TIANQING PHARMACEUTICAL GROUP CO., LTD., priority 2015, dated 2019).

Data set [1] is described as follows: Bioavailability test, oral suspensions in beagle dogs. The class given is in vivo. Particulars: oral suspension in CMC-Na, 5 mg/kg (as compound of Formula I); for Cmax: plasma concentration of compound of Formula I by LC-MS; for AUC0-t: sampling to 48 h. The protocol: Study procedure: Fifteen beagle dogs (7.4˜9.4 kg body weight) were randomly divided into 5 groups, and administered orally suspensions of the compound of Formula I, the maleate, citrate, oxalate and acetate thereof (calculated according to the amount of the compound of Formula I) in CMC-Na (carboxymethylcellulose sodium) at a dosage of 5 mg/kg body weight, respectively.
Chromatographic conditions: methanol as mobile phase A and a 0.1% (v/v) aqueous solution of formic acid as mobile phase B, an isocratic elution A:B=52:48; 0.2 mL/min of a flow rate; 35° C. of column temperature; and SHIMADZU Shim-pack VP-ODS C18 (5.0 μm, 150 mm×2.0 mm I.D., Shimadzu Corporation) as chromatographic column.
Mass spectrometry conditions: ion source: ESI ionization source, scanning in SIM mode, 250° C. of curved desolventizer (CDL) temperature, 200° C. of heating block temperature; 25V of CDL voltage; +1.60 kV of detection voltage; 1.5 L/min of atomization gas flow rate; 2.0 L/min of dry gas flow rate.

Data set [2] concerns NCI-H1975, a human non-small cell lung cancer cell. The data set can be described thus: Anchorage-independent cell proliferation assay, NCI-H1975. The conditions noted are these: NCI-H1975, 168 h, soft agarose, 7 days treatment, CellTiter-Blue. The class given is cell-based. As to the method:
(§1) NCI-H1975, a human non-small cell lung cancer cell, and BT474, a human breast cancer cell line, were cultured in RPIM-1640 or DMEM culture medium supplemented with 10% fetal bovine serum (FBS) in a cell incubator (37° C., 5% CO2). In the test of the compound, culture plates were pre-coated with 0.6% medium, and the cells were resuspended with 0.3% low-melting-point agarose, and then seeded in a 96-well plate at a density of 10,000 cells per well (100 μL). The compound was diluted at a 3-fold gradient, starting from 10 mM. For each of concentration, 2 μL of the solution was taken, and added to 98 μL of culture medium, and then 5.3 μL of the mixture was added to the cell culture medium (0.1% of DMSO final concentration, v/v). After the treatment for one week (7 days), 20 μL of CellTiter-Blue® (Promega) reagent was added, and incubated at 37° C. for 4 hours. Fluorescence signals were read on Envison (Perkin Elmer), and IC50 values of the compound for inhibiting cell proliferation were calculated using GraphPad Prism 5.0.

The subject of data set [3] is BT474, a human breast cancer cell line. Briefly: Anchorage-independent cell proliferation assay, BT474. The class given is cell-based. Particulars: BT-474, 168 h, soft agarose, 7 days treatment, CellTiter-Blue. As to the method:
as §1
On the technique in general: Alamar Blue is a resazurin reagent that responds to reducing activity.

Where two headings read alike, the source gives them in different places.

As for `CC(=O)O` [Acetate], in data set [1] (plasma), the CL/F stood at 55.2 mL/min/kg; the T1/2 is 9.41 h; the Tmax – broadly, the time at which the peak concentration occurs – worked out at 3.33 h; the AUC0-t came to 20350 ng·h/mL. Besides, in data set [1], the Cmax (usually the highest concentration seen after dosing) is 2080 ng/mL.

For the compound `C=CC(=O)N1CCC(Nc2cc3c(Nc4ccc(F)c(Cl)c4)ncnc3cc2OC)CC1` [Example 1, N^6-(1-acryloylpiperidin-4-yl)-N^4-(3-chloro-4-fluorophenyl)-7-methoxyquinazoline-4,6-diamine], half-maximal inhibition in data set [2] (IC50) required 14 nM. Moreover, in data set [1] (dog, plasma), the Vd/F – broadly, the apparent distribution volume after extravascular dosing – came out at 0.78 ± 1.08 L/kg and the half-life (as a rule, the time in which the quantity being followed falls by half) is 5.13 ± 2.85 h. The Cmax in data set [1] (dog, read-out: Cmax) was found to be 2820 ± 2830 ng/mL. In addition, the CL/F in data set [1] (dog, plasma, read-out: CL/F (converted)) was 77.8 mL/min/kg. The Tmax in data set [1] (dog, plasma, read-out: Tmax) came out at 3.17 ± 4.19 h. Also, the AUC0-t in data set [1] (dog, plasma, read-out: AUC0-t) worked out at 42100 ng·h/mL. In addition, it took 2.1 nM to reach half-maximal inhibition in data set [3] (IC50).

In the case of Citrate, in data set [1] (plasma), the CL/F was found to be 72 mL/min/kg, the T1/2 was 4.48 h, the Tmax is on record as 1.33 h and the AUC0-t came to 10760 ng·h/mL. Further, the Cmax in data set [1] is 1290 ng/mL.

As for Oxalate, in data set [1] (plasma), the CL/F came to 23.2 mL/min/kg, the T1/2 was found to be 9.38 h, the time to peak (Tmax) is 1.50 h and the AUC0-t turned out to be 53200 ng·h/mL. Besides, the highest concentration (Cmax) in data set [1] came out at 3590 ng/mL.
